“Also recorded” adds a separate entry of the source. Read-outs that look alike come from different tables or passages of the source.
Tests used:
[1] = system: MCF-7 cells; experiment: Proliferation of human breast cancer MCF-7 cells (DNA content); type: cell-based; settings: for IC50: Homo sapiens, read-out: Inhibition of 1nM E2 stimulation of DNA by tested compounds IC50
Description: The MCF-7 human breast adenocarcinoma cell line was derived from the pleural effusion of a patient. MCF-7 cells were used between passages 148 and 165 and subcultured weekly
Cells in their late logarithmic growth phase were harvested with 0.1% pancreatin (Sigma) and resuspended in the appropriate medium containing 50 ng bovine insulin/ml and 5% (v/v) FBS treated twice with dextran-coated charcoal to remove endogenous steroids. Cells were plated in 24-well Falcon plastic culture plates (2 cm^2/well) at the indicated density and allowed to adhere to the surface of the plates for 72 h. Thereafter, medium was replaced with fresh medium containing the indicated concentrations of compounds diluted from 1000×stock solutions in 99% redistilled ethanol in the presence or absence of E2. Control cells received only the ethanolic vehicle (0.1% EtOH,v/v). Cells were incubated for the specified time intervals with medium changes at 2-or 3-day intervals. Cell number was determined by measurement of DNA content.
Dose-response curves as well IC50 values were calculated using a weighted iterative nonlinear least-squares regression. All results are expressed as means±SEM.

[2] = system: ZR-75-1 breast tumors; experiment: Growth and response category of human ZR-75-1 breast tumors in OVX nude mice, 7 antiestrogens, 161 days (Example 8); type: in vivo
[3] = system: ovariectomized rats supplemented with 17β-estradiol; experiment: EM-652.HCl with oral 17β-estradiol for 2 weeks in OVX rats: uterus, endometrial epithelium, vagina, serum cholesterol (Example 10); type: in vivo, Sprague-Dawley rats; settings: for Reversal of the effect of E2 on uterine weight: 2 weeks
Description: Ten to twelve week-old female Sprague-Dawley rats (Crl:CD(SD)Br) (Charles River Laboratory, St-Constant, Canada) weighing 215-265 g at time of ovariectomy were used. The animals were housed individually in an environmentally-controlled room (temperature: 22±3° C.; humidity: 50±20%; 12-h light-12-h dark cycles, lights on at 07:15 h). The animals were allowed free access to tap water and a certified rodent feed (Lab Diet 5002 (pellet), Ralston Purina, St-Louis, Mo.). The experiment was conducted in an animal facility approved by the Canadian Council on Animal Care (CCAC) and the Association for Assessment and Accreditation of Laboratory Animal Care (AAALAC) in accordance with the CCAC Guide for Care and Use of Experimental Animals.
On the first day of the study, the animals of the appropriate groups were bilaterally ovariectomized (OVX) under isoflurane anesthesia. The tested compounds were then given once daily by oral gavage as a suspension in 0.4% methylcellulose (0.5 ml/rat) from day 1 to day 14 of the study. Animals of groups 1 and 2 received the vehicle alone during the same time period. On day 15 of the study, 4 animals per group were perfused with 10% buffered formalin and tissues were processed for histological examination. The other animals were killed by exsanguination at the abdominal aorta under isoflurane anesthesia. The uterus and vagina were removed, stripped of remaining fat and weighed. A specimen from each uterus was fixed in 10% buffered formalin for determination of the height of endometrial epithelial cells using a computerized-assisted program (Software Image-Pro Plus).
Total cholesterol was measured on serum samples collected from overnight fasted animals using a Boehringer Mannheim Diagnostic Hitachi 911 Analyzer (Boehringer Mannheim Diagnostic Laboratory Systems).

[4] = system: human breast cancer ZR-75-1 xenografts; experiment: Tamoxifen-stimulated growth of ZR-75-1 xenografts in nude mice with or without EM-652.HCl (FIG. 9); type: in vivo
[5] = system: breast and endometrial tissues; experiment: Antiestrogens tested for SERM function and estrogenic activity in breast and endometrium
[6] = 50 μg daily + estrone, 161 days
[7] = EM-652.HCl 3 mg/kg + E2 2 mg/kg
[8] = EM-652.HCl 10 mg/kg + E2 2 mg/kg

CC1=C(c2ccc(O)cc2)[C@H](c2ccc(OCCN3CCCCC3)cc2)Oc2cc(O)ccc21.Cl [EM-652.HCl, (S)-(+)-7-hydroxy-3-(4′-hydroxyphenyl)-4-methyl-2-(4″-(2′″-piperidinoethoxy)phenyl)-2H-1-benzopyran hydrochloride]
IC50 ([1]; MCF7, MCF-7, Experiment 2): 0.205 nM | IC50 ([1]; MCF7, MCF-7, Experiment 1): 0.796 nM | Maximal stimulation of DNA by tested compounds ([1]; MCF-7, Experiment 1): N.S. | Stimulation of DNA by tested compounds ([1]; MCF-7, Experiment 2): N.S. | Complete response, of tumors [2, 6]: 17% | Partial response, of tumors [2, 6]: 17% | Progressing tumors [2, 6]: 7% | Stable response, of tumors [2, 6]: 60% | Effect on estrone-stimulated tumor growth ([2]; 50 μg daily oral + estrone, 23 weeks): completely prevented tumor growth | Change of ZR-75-1 tumor size compared to the OVX control group ([2]; 200 μg daily alone, absence of estrone, 161 days): did not significantly change | Effect on the inhibitory action of E2 on serum cholesterol ([3]; EM-652.HCl 0.01 mg/kg to 0.3 mg/kg): no statistically significant effect | Reduction of the effect of E2 on serum cholesterol ([3]; EM-652.HCl 1.0 mg/kg): 36% | Reduction of the effect of E2 on serum cholesterol ([3]; EM-652.HCl 3.0 mg/kg): 30% | Prevention of E2-stimulated endometrial epithelial height [3, 7]: 83% | Reversal of the effect of E2 on uterine weight [3, 7]: 84% | Inhibition of the stimulatory effect of E2 on vaginal weight ([3]; EM-652.HCl 3 mg/kg, statistically non significant): 50% | Effect on the effect of E2 on vaginal weight ([3]; EM-652.HCl 10 mg/kg): complete reversal | Reduction of the effect of E2 on serum cholesterol ([3]; EM-652.HCl 10 mg/kg): 50% | Prevention of E2-stimulated endometrial epithelial height [3, 8]: 93% | Reversal of the effect of E2 on uterine weight [3, 8]: 87% | Inhibitory effect on E2-stimulated vaginal weight ([3]; EM-652.HCl up to 1 mg/kg): no significant inhibitory effect | Effect on tumor growth in the absence of Tamoxifen ([4]; EM-652.HCl by itself, hydrochloride): has no effect on tumor growth; also recorded: did not exert any stimulatory effect | Effect on the stimulatory effect of Tamoxifen on tumor growth ([4]; simultaneous treatment with Tamoxifen): completely blocked | Function as SERM [5]: found to function as SERMs | Estrogenic activity in breast and endometrial tissues ([5]; physiological or pharmacological concentrations): do not have any estrogenic activity
